The values below come from patent US20260083865A1, “PROSTATE SPECIFIC MEMBRANE ANTIGEN (PSMA) LIGANDS AND USE THEREOF” (priority 2022, published 2026).

The target in assay [1] is T1, Fc-fusion protein of human PSMA (hPSMA-Fc) (Homo sapiens, UniProt Q04609).
T1 construct: purchased Acro Biosystems PSA-H5264
Briefly: Surface plasmon resonance assay (Biacore T200, single cycle kinetic). Format: binding. As to conditions: pKD category for PSMA SPR activity assay, hPSMA-Fc, 25° C.; read-out: pKD CAT (converted). The method in brief: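 hPSMA-Fc was captured (~1000 RU) on an Fc-binding-peptide CM5 chip, and compounds were run in single cycle kinetic mode at 25° C in HBST with 0.1% DMSO. Double-blank-corrected sensorgrams were fitted to a 1:1 Langmuir model to give KD, reported as pKD.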
For orientation: In SPR one partner is held on a chip, and binding of the other changes the refractive index at the surface.

The target in assay [2] is T2, PSMA-expressing C4-2 cells (Homo sapiens, UniProt Q04609).
T2 construct: PSMA-expressing C4-2 cells (ATCC, Cat. No. CRL-3314) were cultured in RPMI-1640; host or cells: C4-2 cells
T2 sequence (Q04609 whole entry): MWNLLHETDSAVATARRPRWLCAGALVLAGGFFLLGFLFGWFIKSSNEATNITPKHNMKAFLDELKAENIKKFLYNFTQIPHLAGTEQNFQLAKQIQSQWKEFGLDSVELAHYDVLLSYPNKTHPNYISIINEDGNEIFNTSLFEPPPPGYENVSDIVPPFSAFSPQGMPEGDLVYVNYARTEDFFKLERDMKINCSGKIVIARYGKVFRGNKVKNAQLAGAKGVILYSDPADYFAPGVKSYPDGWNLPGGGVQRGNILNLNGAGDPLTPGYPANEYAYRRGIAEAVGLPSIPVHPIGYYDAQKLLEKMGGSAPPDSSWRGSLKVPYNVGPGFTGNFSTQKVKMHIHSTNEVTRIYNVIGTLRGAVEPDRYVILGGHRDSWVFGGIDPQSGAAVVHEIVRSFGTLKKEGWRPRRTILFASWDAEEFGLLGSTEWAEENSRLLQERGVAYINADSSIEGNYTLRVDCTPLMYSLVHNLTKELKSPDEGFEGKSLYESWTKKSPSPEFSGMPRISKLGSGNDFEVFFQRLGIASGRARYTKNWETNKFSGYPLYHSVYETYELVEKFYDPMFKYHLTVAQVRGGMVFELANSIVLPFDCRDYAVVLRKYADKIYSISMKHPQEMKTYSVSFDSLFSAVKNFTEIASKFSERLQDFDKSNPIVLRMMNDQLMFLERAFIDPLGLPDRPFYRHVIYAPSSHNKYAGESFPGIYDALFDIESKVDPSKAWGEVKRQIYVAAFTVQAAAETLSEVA
Briefly: FACS binding assay (competition with 50 nM PSM-0183). The note with it: pIC50 category of FACS binding, C4-2 cells; read-out: pIC50 [C4-2] CAT (converted). In short, it runs like this:
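C4-2 cells were incubated 1 h at 4 °C with 50 nM AF488-labelled peptide PSM-0183 plus increasing test compound concentrations, then washed twice in ice-cold buffer. Median fluorescence in the AF488 channel was read by flow cytometry. IC50/pIC50 was derived by 4PL fitting of MFI versus concentration.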
Background: In flow cytometry, cells or beads pass a laser one at a time.

Numbered stars: 1 amine (or outer) side, 2 acyl side, 3 side chain; on linkers, the order of the positions; unused ones are H or OH. Bridge positions count the residues as written; N and C are the ends. Square brackets hold non-standard residues; d marks the D form. Side chains are listed from the residue outwards. Peptide text beside a SMILES is read from it. * marks the point of attachment. Acetyl(1-DOTA-4-piperidyl) = O=C(O)CN1CCN(CC(=O)O)CCN(CC(=O)N2CCC(CC(=O)*)CC2)CCN(CC(=O)O)CC1; DOTA = O=C(O)CN1CCN(CC(=O)O)CCN(CC(=O)*)CCN(CC(=O)O)CC1; Phe(4-Cl) = N[C@@H](Cc1ccc(Cl)cc1)C(=O)O; Phe(3-Me) = Cc1cccc(C[C@H](N)C(=O)O)c1; Arg(Me) = CNC(=N)NCCC[C@H](N)C(=O)O; hPhe = N[C@@H](CCc1ccccc1)C(=O)O; αMeF = C[C@](N)(Cc1ccccc1)C(=O)O; 2Pal = N[C@@H](Cc1ccccn1)C(=O)O; X1 = O=C(CC1CCN([*:1])CC1)[*:2]; X6 = O=C(CN1CCN([*:1])CC1)[*:2]; Lys(Me) = CNCCCC[C@H](N)C(=O)O; Tle = CC(C)(C)[C@H](N)C(=O)O; 4Amb = NCc1ccc(C(=O)O)cc1; αMeS = C[C@](N)(CO)C(=O)O; Aib = CC(C)(N)C(=O)O; CH2 = C([*:1])[*:2]; Sar = CNCC(=O)O Bounds are passed on as bounds.

T1 sequence (Q04609 44-750 limits assumed): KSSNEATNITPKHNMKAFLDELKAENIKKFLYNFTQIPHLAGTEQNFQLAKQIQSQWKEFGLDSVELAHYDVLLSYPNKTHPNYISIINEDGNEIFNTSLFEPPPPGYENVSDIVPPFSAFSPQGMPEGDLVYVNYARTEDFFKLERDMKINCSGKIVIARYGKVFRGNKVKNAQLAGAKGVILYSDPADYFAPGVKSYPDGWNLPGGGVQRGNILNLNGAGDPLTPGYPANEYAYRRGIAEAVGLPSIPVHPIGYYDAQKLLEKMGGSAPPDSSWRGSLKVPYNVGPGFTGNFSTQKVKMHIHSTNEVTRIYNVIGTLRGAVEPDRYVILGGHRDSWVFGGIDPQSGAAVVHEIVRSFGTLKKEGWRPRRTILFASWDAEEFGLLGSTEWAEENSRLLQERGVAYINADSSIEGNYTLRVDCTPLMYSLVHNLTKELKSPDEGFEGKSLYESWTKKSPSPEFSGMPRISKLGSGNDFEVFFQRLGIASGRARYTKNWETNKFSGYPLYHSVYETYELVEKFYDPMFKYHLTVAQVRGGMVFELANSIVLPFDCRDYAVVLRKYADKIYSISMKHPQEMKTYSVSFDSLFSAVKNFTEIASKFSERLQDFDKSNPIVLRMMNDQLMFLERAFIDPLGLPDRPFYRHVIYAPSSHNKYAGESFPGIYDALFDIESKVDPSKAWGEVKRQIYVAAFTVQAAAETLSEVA

With `C[C@@H](O)[C@H](NC(=O)[C@@H](NC(=O)[C@@H]1CSSC[C@H](NC(=O)[C@H](Cc2ccc(Cl)cc2)NC(=O)[C@](C)(CO)NC(=O)[C@@H](NC(=O)CC2CCN(C(=O)CN3CCN(CC(=O)O)CCN(CC(=O)O)CCN(CC(=O)O)CC3)CC2)[C@@H](C)O)C(=O)N[C@@H](CCCCN)C(=O)N[C@@H](CCCNC(=N)N)C(=O)N[C@@](C)(CO)C(=O)N[C@@H](CC(N)=O)C(=O)N1)C(C)(C)C)C(N)=O` [PSM-0407, DOTA-Cmp-Thr-Ams-Pcf-[Cys-Lys-Arg-Ams-Asn-Cys]-Tle-Thr-NH2] ({DOTA}-[X1]T[αMeS][Phe(4-Cl)]CKR[αMeS]NC[Tle]T-NH2; disulfide 5-10), the Kd in assay [1] is under 12.6 nM. Moreover, the IC50 in assay [2] was under 200 nM.
For `CC(=O)N[C@H](C(=O)N(C)CC(=O)N[C@@H](Cc1ccccc1)C(=O)N[C@H]1CSSC[C@@H](C(=O)N[C@H](C(=O)N[C@H](C(N)=O)[C@@H](C)O)C(C)(C)C)NC(=O)[C@H](CC(N)=O)NC(=O)C(C)(C)NC(=O)[C@H](CCCNC(=N)N)NC(=O)[C@H](CCCCN)NC1=O)[C@@H](C)O` [PSM-0408, Ac-Thr-Nmg-Phe-[Cys-Lys-Arg-Aib-Asn-Cys]-Tle-Thr-NH2] (Ac-T[Sar]FCKR[Aib]NC[Tle]T-NH2; disulfide 4-9) the same measures were 126 to 501 nM and 200 to 1260 nM.
For `CNCCCC[C@@H]1NC(=O)[C@@H](NC(=O)[C@H](Cc2ccccn2)NC(=O)C(C)(C)NC(=O)[C@@H](NC(=O)CC2CCN(C(=O)CN3CCN(CC(=O)O)CCN(CC(=O)O)CCN(CC(=O)O)CC3)CC2)[C@@H](C)O)CSSC[C@@H](C(=O)N[C@H](C(N)=O)C(C)(C)C)NC(=O)[C@H](CC(N)=O)NC(=O)C(C)(C)NC(=O)[C@H](CCCNC(=N)NC)NC1=O` [PSM-0409, DOTA-Cmp-Thr-Aib-Opa-[Cys-Lys(Me)-Arg(Me)-Aib-Asn-Cys]-Tle-NH2] ({DOTA}-[X1]T[Aib][2Pal]C[Lys(Me)][Arg(Me)][Aib]NC[Tle]-NH2; disulfide 5-10) the same measures were 126 to 501 nM and 200 to 1260 nM.
For `CNCCCC[C@@H]1NC(=O)[C@@H](NC(=O)[C@H](Cc2ccc(Cl)cc2)NC(=O)C(C)(C)NC(=O)[C@@H](NC(=O)CC2CCN(C(=O)CN3CCN(CC(=O)O)CCN(CC(=O)O)CCN(CC(=O)O)CC3)CC2)[C@@H](C)O)CSSC[C@@H](C(=O)N[C@H](C(=O)N[C@H](C(N)=O)[C@@H](C)O)C(C)(C)C)NC(=O)[C@H](CC(N)=O)NC(=O)C(C)(C)NC(=O)[C@H](CCCNC(=N)N)NC1=O` [PSM-0410, DOTA-Cmp-Thr-Aib-Pcf-[Cys-Lys(Me)-Arg-Aib-Asn-Cys]-Tle-Thr-NH2] ({DOTA}-[X1]T[Aib][Phe(4-Cl)]C[Lys(Me)]R[Aib]NC[Tle]T-NH2; disulfide 5-10), in assay [1], the Kd is under 12.6 nM. The IC50 in assay [2] was under 200 nM.
For `CC(=O)N[C@H](C(=O)NC(C)(C)C(=O)N[C@@H](CCc1ccccc1)C(=O)N[C@H]1CSSC[C@@H](C(=O)N[C@H](C(=O)N[C@H](C(N)=O)[C@@H](C)O)C(C)(C)C)NC(=O)[C@H](CC(N)=O)NC(=O)C(C)(C)NC(=O)[C@H](CCCNC(=N)N)NC(=O)[C@H](CCCCN)NC1=O)[C@@H](C)O` [PSM-0411, Ac-Thr-Aib-Hfe-[Cys-Lys-Arg-Aib-Asn-Cys]-Tle-Thr-NH2] (Ac-T[Aib][hPhe]CKR[Aib]NC[Tle]T-NH2; disulfide 4-9) the same measures were under 12.6 nM and under 200 nM.
In the same order, the values of `CC(=O)N[C@H](C(=O)NC(C)(C)C(=O)N[C@@H](Cc1cccc(C)c1)C(=O)N[C@H]1CSSC[C@@H](C(=O)N[C@H](C(=O)N[C@H](C(N)=O)[C@@H](C)O)C(C)(C)C)NC(=O)[C@H](CC(N)=O)NC(=O)C(C)(C)NC(=O)[C@H](CCCNC(=N)N)NC(=O)[C@H](CCCCN)NC1=O)[C@@H](C)O` [PSM-0412, Ac-Thr-Aib-Mmf-[Cys-Lys-Arg-Aib-Asn-Cys]-Tle-Thr-NH2] (Ac-T[Aib][Phe(3-Me)]CKR[Aib]NC[Tle]T-NH2; disulfide 4-9) are under 12.6 nM and under 200 nM.
`C[C@@H](O)[C@H](NC(=O)[C@@H](NC(=O)[C@@H]1CSSC[C@H](NC(=O)[C@H](Cc2ccccc2)NC(=O)C(C)(C)NC(=O)CN2CCN(C(=O)CN3CCN(CC(=O)O)CCN(CC(=O)O)CCN(CC(=O)O)CC3)CC2)C(=O)N[C@@H](CCCCN)C(=O)N[C@@H](CCCNC(=N)N)C(=O)NC(C)(C)C(=O)N[C@@H](CC(N)=O)C(=O)N1)C(C)(C)C)C(N)=O` [PSM-0413, DOTA-PPAc-Aib-Phe-[Cys-Lys-Arg-Aib-Asn-Cys]-Tle-Thr-NH2] ({DOTA}-[X6][Aib]FCKR[Aib]NC[Tle]T-NH2; disulfide 4-9): the Kd in assay [1] was 12.6 to 126 nM. Further, in assay [2], the IC50 is under 200 nM.
For `CC(=O)N[C@H](C(=O)N[C@@H](C)C(=O)N[C@@](C)(Cc1ccccc1)C(=O)N[C@H]1CSSC[C@@H](C(=O)N[C@H](C(=O)N[C@H](C(N)=O)[C@@H](C)O)C(C)(C)C)NC(=O)[C@H](CC(N)=O)NC(=O)C(C)(C)NC(=O)[C@H](CCCNC(=N)N)NC(=O)[C@H](CCCCN)NC1=O)[C@@H](C)O` [PSM-0414, Ac-Thr-Ala-Amf-[Cys-Lys-Arg-Aib-Asn-Cys]-Tle-Thr-NH2] (Ac-TA[αMeF]CKR[Aib]NC[Tle]T-NH2; disulfide 4-9) the same measures were 12.6 to 126 nM and over 3160 nM.
For `CC(=O)N[C@H](C(=O)NC(C)(C)C(=O)N[C@@H](Cc1ccccc1)C(=O)N[C@H]1CSSC[C@@H](C(=O)N[C@H](C(=O)N[C@H](C(N)=O)[C@@H](C)O)C(C)(C)C)NC(=O)[C@H](CC(N)=O)NC(=O)[C@H](CCCCNC(=O)CC2CCN(C(=O)CN3CCN(CC(=O)O)CCN(CC(=O)O)CCN(CC(=O)O)CC3)CC2)NC(=O)[C@H](CCCNC(=N)N)NC(=O)[C@H](CCCCN)NC1=O)[C@@H](C)O` [PSM-0415, Ac-Thr-Aib-Phe-[Cys-Lys-Arg-Lys(DOTA-Cmp)-Asn-Cys]-Tle-Thr-NH2] (Ac-T[Aib]FCKRK(Acetyl(1-DOTA-4-piperidyl))NC[Tle]T-NH2; disulfide 4-9) the same measures were 12.6 to 126 nM and under 200 nM.
With `CC(=O)N[C@H](C(=O)NC(C)(C)C(=O)N[C@@H](Cc1ccccc1)C(=O)N[C@H]1CSSC[C@@H](C(=O)N[C@H](C(=O)N[C@H](C(N)=O)[C@@H](C)O)C(C)(C)C)NC(=O)[C@H](CC(N)=O)NC(=O)[C@H](CCCCNC(=O)c2ccc(CNC(=O)CN3CCN(CC(=O)O)CCN(CC(=O)O)CCN(CC(=O)O)CC3)cc2)NC(=O)[C@H](CCCNC(=N)N)NC(=O)[C@H](CCCCN)NC1=O)[C@@H](C)O` [PSM-0419, Ac-Thr-Aib-Phe-[Cys-Lys-Arg-Lys(DOTA-Pamb)-Asn-Cys]-Tle-Thr-NH2] (Ac-T[Aib]FCKRK([4Amb-DOTA])NC[Tle]T-NH2; disulfide 4-9), in assay [1], the Kd is under 12.6 nM. For the same compound, the IC50 in assay [2] was under 200 nM.
As for `CNCCCC[C@@H]1NC(=O)[C@@H](NC(=O)[C@H](Cc2ccc(Cl)cc2)NC(=O)C(C)(C)NC(=O)[C@@H](NC(=O)CC2CCN(C(=O)CN3CCN(CC(=O)O)CCN(CC(=O)O)CCN(CC(=O)O)CC3)CC2)[C@@H](C)O)CSCSC[C@@H](C(=O)N[C@H](C(N)=O)C(C)(C)C)NC(=O)[C@H](CC(N)=O)NC(=O)C(C)(C)NC(=O)[C@H](CCCNC(=N)NC)NC1=O` [PSM-0420, DOTA-Cmp-Thr-Aib-Pcf-[Smc-Lys(Me)-Arg(Me)-Aib-Asn-Cys]-Tle-NH2] ({DOTA}-[X1]T[Aib][Phe(4-Cl)]C[Lys(Me)][Arg(Me)][Aib]NC[Tle]-NH2; linker 5-10 via CH2), the Kd in assay [1] was under 12.6 nM. In addition, the IC50 in assay [2] is under 200 nM.
